Columns and labels:
[1] = solubility in donor solution and thermodynamic activity (Table 4); assay type: physicochemical; conditions: PG
[2] = patch pre-formulation, saturated concentration in adhesive; assay type: physicochemical; conditions: DURO-TAK 87-2051 adhesive
Procedure: To each solution, 175 μL of the transdermal adhesive DURO-TAK 87-2051 (51.5 w/v %) was added, and vortexed. Then 2.0 μL of α-tocopherol and 2.5 μL of diethylene glycol monoethyl ether were added and vortexed. The visual solubility was assessed.
To this solution 4 mg of α-tocopherol in 3 mL ethyl acetate was added and 167 μL of the transdermal adhesive DURO-TAK 87-2051 (51.5 w/v %) in 7 mL ethyl acetate with 6 μL diethylene glycol monoethyl ether was also added.
Each solution (3×3 cm) was cast onto the backing (3M™ Scotchpak™ Polyester Backing Film Laminate 9730, UK) to determine the clarity, and the saturation limit of the test agents in the adhesive mixtures.

physchem = assay type: physicochemical; conditions: % Recovery
Procedure: To validate the method of test agent recovery from the skin, solutions (1.0 mg/mL) of each vitamin D analogue were prepared in 100% PG. The precise concentrations in these samples were analysed by HPLC method described above. To assess the chemical stability of each test agent in the donor solutions used in the Franz cell experiments, 1.0 mg/mL of the samples prepared in 100% PG were incubated in a water bath at 37° C. for 24 h. In addition, to understand the chemical stability of each test agent in the extraction solvents used in the skin deposition studies, 1 mL of the drug sample in 100% PG was added into 10 mL of extraction fluid (MeOH for cholecalciferol, cholecalciferol phosphate acid, and MeOH:water, 90:10 for cholecalciferol phosphate disodium salt). Samples in PG (n=3) and samples in PG with the extraction fluid (n=3) were left in the water bath overnight at 37° C. and the sample concentration was analysed by the HPLC method described above. To assess whether the HPLC fluid had been impacted by any proteins that had leaked out of the skin, PG:water, 80:20 was added to donor and receiver chambers of porcine skin loaded Franz cells (n=3). A 5 mL sample of the receiver fluid was collected, and 25 μL of each test solution was added to this fluid and diluted to MeOH (1:1) and analysed by the HPLC method described previously. To verify the percentage of drug that could be recovered from the skin tissue, the skin sections were dermatomed (1 mm thickness) (n=3). The test solutions were spiked (50 μL) into a sample bottle containing the chopped dermatomed skin tissue. The samples containing the spiked drugs were left for 1 h for the drugs to absorb into the tissues. After the 1 h incubation period, 5 mL of extraction fluid (MeOH for cholecalciferol, cholecalciferol phosphate acid, and MeOH:water, 90:10 for cholecalciferol phosphate disodium salt) was added into each piece of the dermatomed skin tissue, then incubated in a shaking water bath for 1 h. The solutions were then tissue lysed by a tissue lyser for 40 min and homogenised by Ultra Turrax for 1 min and filtered using 0.45 μm syringe filters, centrifuged for 10 min at 13,000 rpm, and analysed by the HPLC method described above. In terms of cholecalciferol phosphate acid, after 1 h incubation and adding 5 mL extraction fluid, immediately the solutions with skin tissues were tissue lysed by a tissue lyser for 15 min. The solutions were then centrifuged for 10 min at 13,000 rpm and the supernatants were analysed by the HPLC method described above.

[3] = skin permeation and deposition, automated Franz diffusion cell (Example 5); assay type: in vitro ADME; conditions: PG formulation
Procedure: For the final formulation, 61.5 mg of cholecalciferol phosphate acid in 4.1 mL hexane was added into 1.435 mL DURO-TAK 87-2051 (51.5 w/v %) with 16.4 μL α-tocopherol and 20.5 μL diethylene glycol monoethyl ether. Likewise, 120 mg of cholecalciferol phosphate disodium salt in 35.2 mL MeOH:water (10:1) was added to 1.336 mL of DURO-TAK 87-2051 (51.5 w/v %) in 56 mL ethyl acetate with 32 mg of α-tocopherol and 48 μL diethylene glycol monoethyl ether. Each formulation was spread evenly on the 10×10 cm patch tray and left overnight to dry completely. Following the complete drying of the solvents, the adhesive layer was covered by the M3 Release layer (SCOTCHPAK 9755, UK), compressed, and then cut using a 34 mm circular manual die cutter (SCP Super Cutting Press, UK).
Subsequently, 1 mL aliquots were applied to the skin.
The automated Franz diffusion cell was used to investigate the permeation of cholecalciferol, cholecalciferol phosphate salt and cholecalciferol phosphate acid through porcine skin. Fresh white adult porcine ears were obtained from a local butcher (Ginger Pig, UK). Any damaged ears were discarded. The ears were removed from the carcass after hair removal. […] The collected receiver fluid was analysed by HPLC methods described previously.
At the end of the transport studies, the Franz cells were dismantled, and the donor solution was collected into bottles containing 10 mL of extraction fluid; MeOH for cholecalciferol, cholecalciferol phosphate acid and MeOH:water (90:10) for cholecalciferol phosphate salt, by wiping the surface of the skin and the inside of the donor compartment with two wet and then two dry cotton buds. […] Each collection was analysed by the HPLC method described above. Thus, the amount of each test agent on the surface of the skin, deposited in the skin, and passed into the receiver fluid was determined so that % mass recovery per cm^2 per skin could be calculated and drug deposition profiles could be obtained.

[4] = chemical stability on storage over 4 weeks; assay type: physicochemical
Procedure: The chemical stability of cholecalciferol phosphate acid/disodium salt was assessed in three different conditions over a 4-week period. Aliquots of 2 mg for each sample was stored at room temperature, 4° C., and −20° C. in a glass bottle covered with foil. A 20 mL sample of MeOH and MeOH:water (90:10) was added to cholecalciferol phosphate acid and cholecalciferol phosphate disodium salt, and the concentration and purity were assessed every week by the HPLC method described previously. The peak area was used to calculate sample concentration and the gradient of the data points being used to calculate the degradation rate.

With `C=C1CC[C@H](OP(=O)(O)O)C/C1=C/C=C1\CCC[C@@]2(C)C1CC[C@@H]2[C@H](C)CCCC(C)C` (stereo in doubt) [Cholecalciferol phosphate acid, cholecalciferol phosphate acid] the “Solubility in PG” value [1] was 4690 µg/mL, the “saturated concentration in patch formulation (highest loading without precipitation)” value [2] was 5.02 w/w % and the recovery at 0.091 mg/mL (physchem; chemical stability with extraction fluid) was 92.2 ± 2.26%. For the same molecule, the recovery at 24 h, 1 mg/mL (physchem; chemical stability without extraction fluid) was 88.5 ± 3.35%, the “fold higher transdermal permeation through the skin compared to cholecalciferol” value [3] was “about 9.34 fold” and the “loss of the original compound over 4 weeks” value ([4]; 4° C.) was 9.98%. For the same molecule, the “reduction of purity over 4 weeks” value ([4]; 4° C.) was 27.18%, the “loss of the original compound over 4 weeks” value ([4]; room temperature) was 77.15% and the “reduction of purity over 4 weeks” value ([4]; room temperature) was 72.2%. For the same molecule, the “reduction of purity over 4 weeks” value ([4]; −20° C.) was 1.03%.
